Experiment [1] concerns the target T1, human SIGMA1 receptor (Homo sapiens, UniProt Q99720). Description: SIGMA1 filtration radioligand binding assay ([3H]DTG, membranes of transfected HEK293 cells). On the set-up: expressed in transfected cells; membrane/cell debris preparation. Conditions: for inhibition at 20 µM / SIGMA1 % Inhibition of Max Dose: Max Dose 20.000 μM. The method, then: For SIGMA1 receptor expression in HEK293 cells, the human SIGMA1 receptor (U75283) in pcDNA 3.1(+) (Promega Corp., Madison, WI, USA) was used. In total, 2 μg of DNA was transfected in HEK293 cells (1,000,000 cells/dish) using FuGENE® HD Transfection Reagent (Promega Corp., Madison, WI, USA) according to the manufacturer’s recommendations. After 24 h, the medium was replaced by a medium containing the G418 antibiotic (300 μg/mL) (Burlington, MA, USA). The survival clones were scraped and cultured in individual dishes. After the cell amplification, they were harvested with trypsin and homogenized, then centrifuged at 50,000× g for 1 h, and the cell debris was used for the binding assay.
A SIGMA1 receptor-enriched membrane preparation was utilized for the binding assays at a 1.1 mg/mL concentration. Each assay well was loaded with 13 μg of this membrane preparation to ensure consistent receptor availability across all experimental conditions.
This methodical preparation ensures that the assay conditions are reproducible and that the concentration-dependent effects of the compounds can be accurately evaluated.
Reference and test compounds were diluted and transferred sequentially to the assay plate. We added non-specific binding compounds (low control, LC) and DMSO as the total binding high control (HC) according to the non-specific binding plate layout. We added 100 μL of the membrane stock solution and 100 μL of the radiolabeled ligand to the plate. We sealed the plates and shook them at 300 rpm under specified conditions. We filtered the reaction mixture through GF/B plates using a Filtermate-Harvester (PerkinElmer, Waltham, MA, USA, Cat: C961961), followed by washing with cold wash buffer, and dried and sealed the filter plates.
We added non-specific binding compounds (as the LC) and DMSO as the total binding HC according to the non-specific binding plate layout. Then, we added 100 μL of the membrane stock solution and 100 μL of the radiolabeled ligand to the plate. We sealed the plates and shook them at 300 rpm under specified conditions. […] After the binding experiment, we filtered the reaction mixture through GF/B plates using a Perkin Elmer Filtermate Harvester, washing each plate six times with a cold wash buffer. We dried the filter plates for 1 h at 50 °C. After drying, we sealed the bottom of the filter plate wells with Perkin Elmer Unifilter-96 backing tape. […] We counted the 3H on the filters using a Perkin Elmer MicroBeta2 Reader.
We analyzed the data using Prism 5. We fitted dose–response curves and determined the half maximal inhibitory concentration (IC50) using the “log(inhibitor) vs. response-variable slope” model.
We used the Z’-Prime equation for quality control, which can be written as follows: Z′ Factor=1−3×STDEVHC+3×STDEVLC/AVGHC − AVGLC∗100% where STDEVHC is the average standard deviation of MAX, STDEVLC is the average standard deviation of MIN, AVGHC is the average of MAX, and AVGLC is the average of MIN. Z’ must be ≥0.5 as the quality control standard.

The target in experiment [2] is T1, human SIGMA1 receptor. The experiment in a line: radioligand binding; filtration competition assay: membranes of HEK293 cells expressing human SIGMA1 (13 ug per well), [3H]DTG at 0.005 uM displaced by the test compound, max dose 20 uM, room temperature, GF/B filter plates.
Setting [3] is: [3H]DTG 0.005 μM, membranes of HEK293 cells expressing human SIGMA1, read-out: SIGMA1 IC50.
[4] abbreviates: [3H]DTG 0.005 μM, membranes of HEK293 cells expressing human SIGMA1, read-out: SIGMA1 Ki.

A word on the Ki: it is a dissociation constant, usually derived from enzyme kinetics or from competition with a known ligand. By inhibition is commonly meant the drop in the measured response relative to a control, in per cent. A higher inhibition goes with strong suppression. What is called IC50 is the concentration needed to halve the response being measured.

T1 sequence (Q99720 whole entry): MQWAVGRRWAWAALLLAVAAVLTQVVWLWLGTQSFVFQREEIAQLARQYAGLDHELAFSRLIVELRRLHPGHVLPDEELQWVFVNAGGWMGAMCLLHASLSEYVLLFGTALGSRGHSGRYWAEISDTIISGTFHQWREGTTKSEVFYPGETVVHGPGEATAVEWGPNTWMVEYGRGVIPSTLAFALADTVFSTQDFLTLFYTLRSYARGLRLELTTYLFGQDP

`CC(C)C1NC(=O)CNC1=O` (centres unmarked) [Cyclo(Val-Gly)]: at human SIGMA1 receptor [1], the Ki came to 9.95 µM and the inhibition at 20 µM stood at 61.9%. The IC50 at human SIGMA1 receptor [1] (SIGMA1 IC50, [3H]DTG 0.005 μM, membranes of HEK293 cells expressing human SIGMA1) stood at 11.5 µM.

Regarding `C[C@@H]1NC(=O)[C@H](CCC(N)=O)NC1=O` [Cyclo(Ala-Gln)], the inhibition at 20 µM on human SIGMA1 receptor [1] was 59.7%. Moreover, the 50% inhibitory concentration (IC50) at human SIGMA1 receptor [1] (setting [3]) turned out to be 13.4 µM. Besides, the Ki on human SIGMA1 receptor [1] (setting [4]) amounted to 11.7 µM.

In the experiment with human SIGMA1 receptor [2], cyclo(Val-Val) registered an IC50 of over 20 µM and a Ki of over 17.4 µM.

As for `O=C1CNC(=O)CN1` [Cyclo(Gly-Gly)], the “SIGMA1 % Inhibition of Max Dose” value at human SIGMA1 receptor [1] came out at 3.200%. For the same compound, the IC50 on human SIGMA1 receptor [1] (setting [3]) was over 20 µM. For the same compound, the Ki on human SIGMA1 receptor [1] (setting [4]) is over 17.4 µM.

As for `O=C1NC(Cc2ccccc2)C(=O)N2CC(O)CC12` (centres unmarked) [Cyclo(Hyp-Phe)], the “SIGMA1 % Inhibition of Max Dose” value at human SIGMA1 receptor [1] amounted to 54.26%. The IC50 on human SIGMA1 receptor [1] (setting [3]) was over 20 µM. On human SIGMA1 receptor [1] (setting [4]), the inhibitory constant (Ki) is over 17.4 µM.

In the experiment with human SIGMA1 receptor [2], cyclo(Ala-Gln) showed a % Inhibition of Max Dose of 59.7% and a half-maximal inhibitory concentration (IC50) of 13.4 µM.

Take `O=C1CNC(=O)[C@H](Cc2ccc(O)cc2)N1` [Cyclo(Gly-Tyr)]: the “SIGMA1 % Inhibition of Max Dose” value on human SIGMA1 receptor [1] turned out to be 42.82%. Moreover, on human SIGMA1 receptor [1] (setting [3]), the half-inhibitory concentration (IC50) was over 20 µM. Besides, the inhibition constant Ki on human SIGMA1 receptor [1] (setting [4]) is over 17.4 µM.

In turn, `C[C@@H]1NC(=O)[C@H](Cc2cnc[nH]2)NC1=O` [Cyclo(Ala-His)] returned an inhibition at 20 µM at human SIGMA1 receptor [1] of 50.2%. Moreover, at human SIGMA1 receptor [1] (setting [3]), the IC50 is 19.4 µM. The inhibition constant (Ki) on human SIGMA1 receptor [1] (setting [4]) is 16.9 µM.

In the case of cyclo(Ala-His), in the experiment with human SIGMA1 receptor [2], the % Inhibition of Max Dose turned out to be 50.2% and the half-inhibitory concentration (IC50) is 19.4 µM.

Turning to `CC1NC(=O)CNC1=O` (centres unmarked) [Cyclo(Ala-Gly)], on human SIGMA1 receptor [1], the “SIGMA1 % Inhibition of Max Dose” value turned out to be 44.60%. In addition, the IC50 on human SIGMA1 receptor [1] (setting [3]) is over 20 µM. In addition, the Ki on human SIGMA1 receptor [1] (setting [4]) is over 17.4 µM.

`O=C1N[C@@H](Cc2ccc(O)cc2)C(=O)N[C@H]1Cc1ccc(O)cc1` [Cyclo(Tyr-Tyr)]: the “SIGMA1 % Inhibition of Max Dose” value at human SIGMA1 receptor [1] is 40.29%. Further, the IC50 at human SIGMA1 receptor [1] (setting [3]) is over 20 µM. Also, the inhibitory constant (Ki) at human SIGMA1 receptor [1] (setting [4]) is over 17.4 µM.

On to cyclo(Val-Gly), for which, in the experiment with human SIGMA1 receptor [2], the % Inhibition of Max Dose is 61.9% and the IC50 is 11.5 µM.

`O=C1NC(Cc2ccc(O)cc2)C(=O)N2CC(O)CC12` (centres unmarked) [Cyclo(Hyp-Tyr)]: the “SIGMA1 % Inhibition of Max Dose” value at human SIGMA1 receptor [1] worked out at 49.80%. For the same compound, the IC50 at human SIGMA1 receptor [1] (setting [3]) is over 20 µM. Further, at human SIGMA1 receptor [1] (setting [4]), the Ki was over 17.4 µM.

Turning to `O=C1NC(Cc2ccccc2)C(=O)N2CCCC12` (centres unmarked) [Cyclo(Phe-Pro)], the “SIGMA1 % Inhibition of Max Dose” value on human SIGMA1 receptor [1] was 24.20%. Further, the IC50 on human SIGMA1 receptor [1] (setting [3]) was over 20 µM. Moreover, on human SIGMA1 receptor [1] (setting [4]), the inhibition constant Ki was over 17.4 µM.

For the compound `O=C1N[C@@H](Cc2ccccc2)C(=O)N[C@H]1Cc1ccccc1` [Cyclo(Phe-Phe)], the “SIGMA1 % Inhibition of Max Dose” value at human SIGMA1 receptor [1] is recorded as 39.40%. Moreover, on human SIGMA1 receptor [1] (setting [3]), the IC50 was over 20 µM. For the same compound, the Ki on human SIGMA1 receptor [1] (setting [4]) was over 17.4 µM.

Values taken from paper PMC11546255, “Exploring the Frontier of Cyclic Dipeptides: A Bioinformatics Approach to Potential Therapeutic Applications in Schizophrenia” (International Journal of Molecular Sciences, 2024).
